Results reported in ChEMBL document CHEMBL5465560, “Selectivity Literature for EUbOPEN Chemogenomic Library” (2024).
One block for each compound: values may come before it.

Columns and labels:
[1] = target: Serine/threonine-protein kinase PLK2 (Homo sapiens, UniProt Q9NYY3); experiment: Selectivity interaction (KinomeScan (DiscoverX)) EUB0000607a PLK2; details: at 10 µM
[2] = target: Ribosomal protein S6 kinase alpha-3 (Homo sapiens, UniProt P51812); experiment: Selectivity interaction (ActivX KiNativ screen (kinase selectivity in THP-1 cell lysates)) EUB0000639a RPS6KA3; format: subcellular; details: lysate, at 0.2 µM
[3] = target: Tyrosine-protein kinase JAK1 (Homo sapiens, UniProt P23458); experiment: Selectivity interaction (KinomeScan (DiscoverX)) EUB0000655a JAK1; details: at 10 µM
[4] = target: T1, Discoidin domain-containing receptor 2 (Homo sapiens) (UniProt Q16832); experiment: Selectivity interaction (KinomeScan (DiscoverX)) EUB0000229b DDR2; details: at 10 µM
T1 sequence (whole entry): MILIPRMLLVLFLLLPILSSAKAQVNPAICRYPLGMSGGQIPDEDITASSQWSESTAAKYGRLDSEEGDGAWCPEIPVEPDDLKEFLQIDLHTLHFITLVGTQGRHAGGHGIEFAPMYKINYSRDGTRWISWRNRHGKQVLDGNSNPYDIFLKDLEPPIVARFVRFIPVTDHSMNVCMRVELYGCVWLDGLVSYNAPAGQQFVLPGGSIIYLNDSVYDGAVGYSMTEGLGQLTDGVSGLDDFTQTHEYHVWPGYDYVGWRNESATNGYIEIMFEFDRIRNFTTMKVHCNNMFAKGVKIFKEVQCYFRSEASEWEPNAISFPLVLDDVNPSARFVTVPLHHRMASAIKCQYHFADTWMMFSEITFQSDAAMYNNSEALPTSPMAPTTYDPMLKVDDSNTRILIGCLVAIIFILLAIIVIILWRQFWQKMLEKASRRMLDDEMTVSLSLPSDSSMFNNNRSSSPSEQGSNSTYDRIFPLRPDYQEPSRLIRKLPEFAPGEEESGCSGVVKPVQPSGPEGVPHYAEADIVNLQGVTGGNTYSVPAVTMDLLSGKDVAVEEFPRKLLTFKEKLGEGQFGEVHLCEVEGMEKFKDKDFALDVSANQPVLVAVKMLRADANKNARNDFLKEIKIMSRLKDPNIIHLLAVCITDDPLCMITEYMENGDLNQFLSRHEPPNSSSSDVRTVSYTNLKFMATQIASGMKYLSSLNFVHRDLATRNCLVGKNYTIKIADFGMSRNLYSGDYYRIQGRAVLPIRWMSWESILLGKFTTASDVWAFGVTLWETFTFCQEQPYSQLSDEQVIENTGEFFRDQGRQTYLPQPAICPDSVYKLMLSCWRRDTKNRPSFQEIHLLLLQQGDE

[5] = target: T2, Mitogen-activated protein kinase kinase kinase 2 (Homo sapiens) (UniProt Q9Y2U5); experiment: Selectivity interaction (KinomeScan (DiscoverX)) EUB0000229b MAP3K2; details: at 10 µM
T2 sequence (whole entry): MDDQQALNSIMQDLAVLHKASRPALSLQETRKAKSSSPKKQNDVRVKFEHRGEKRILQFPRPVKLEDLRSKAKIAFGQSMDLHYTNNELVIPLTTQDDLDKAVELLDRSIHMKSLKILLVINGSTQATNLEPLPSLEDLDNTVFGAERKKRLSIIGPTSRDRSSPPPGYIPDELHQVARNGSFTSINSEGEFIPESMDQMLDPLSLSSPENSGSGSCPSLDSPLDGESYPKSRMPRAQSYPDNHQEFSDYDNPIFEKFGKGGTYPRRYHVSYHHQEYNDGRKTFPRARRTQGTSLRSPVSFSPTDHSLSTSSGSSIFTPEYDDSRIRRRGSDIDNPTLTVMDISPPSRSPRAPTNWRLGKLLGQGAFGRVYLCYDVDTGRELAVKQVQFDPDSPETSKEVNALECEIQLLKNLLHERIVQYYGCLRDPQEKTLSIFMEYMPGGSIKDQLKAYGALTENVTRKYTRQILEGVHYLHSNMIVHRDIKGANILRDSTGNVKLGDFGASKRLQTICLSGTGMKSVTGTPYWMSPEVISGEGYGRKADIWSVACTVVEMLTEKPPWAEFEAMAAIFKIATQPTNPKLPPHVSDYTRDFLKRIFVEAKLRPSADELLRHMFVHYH

Chain of Ribosomal protein S6 kinase alpha-3 (P51812 whole entry): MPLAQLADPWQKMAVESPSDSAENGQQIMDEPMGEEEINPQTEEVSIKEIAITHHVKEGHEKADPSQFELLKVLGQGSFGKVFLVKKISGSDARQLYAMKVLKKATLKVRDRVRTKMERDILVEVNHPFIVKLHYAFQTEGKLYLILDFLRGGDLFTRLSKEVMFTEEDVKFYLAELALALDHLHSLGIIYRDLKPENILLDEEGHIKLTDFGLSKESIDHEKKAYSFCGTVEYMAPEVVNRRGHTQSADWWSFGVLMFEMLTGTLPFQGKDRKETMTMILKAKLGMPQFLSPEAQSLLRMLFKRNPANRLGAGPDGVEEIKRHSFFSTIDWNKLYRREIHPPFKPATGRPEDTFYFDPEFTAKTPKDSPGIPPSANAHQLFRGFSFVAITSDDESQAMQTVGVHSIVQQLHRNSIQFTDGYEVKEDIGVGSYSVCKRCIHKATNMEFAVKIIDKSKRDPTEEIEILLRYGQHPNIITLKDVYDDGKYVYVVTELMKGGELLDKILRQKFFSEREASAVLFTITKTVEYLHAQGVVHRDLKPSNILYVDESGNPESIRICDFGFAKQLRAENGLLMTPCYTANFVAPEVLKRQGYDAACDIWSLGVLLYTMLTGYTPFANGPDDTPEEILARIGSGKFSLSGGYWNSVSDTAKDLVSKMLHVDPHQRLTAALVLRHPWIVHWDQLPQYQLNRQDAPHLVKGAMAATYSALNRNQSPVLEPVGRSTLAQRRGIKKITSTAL
Chain of Serine/threonine-protein kinase PLK2 (Q9NYY3 whole entry, looked up): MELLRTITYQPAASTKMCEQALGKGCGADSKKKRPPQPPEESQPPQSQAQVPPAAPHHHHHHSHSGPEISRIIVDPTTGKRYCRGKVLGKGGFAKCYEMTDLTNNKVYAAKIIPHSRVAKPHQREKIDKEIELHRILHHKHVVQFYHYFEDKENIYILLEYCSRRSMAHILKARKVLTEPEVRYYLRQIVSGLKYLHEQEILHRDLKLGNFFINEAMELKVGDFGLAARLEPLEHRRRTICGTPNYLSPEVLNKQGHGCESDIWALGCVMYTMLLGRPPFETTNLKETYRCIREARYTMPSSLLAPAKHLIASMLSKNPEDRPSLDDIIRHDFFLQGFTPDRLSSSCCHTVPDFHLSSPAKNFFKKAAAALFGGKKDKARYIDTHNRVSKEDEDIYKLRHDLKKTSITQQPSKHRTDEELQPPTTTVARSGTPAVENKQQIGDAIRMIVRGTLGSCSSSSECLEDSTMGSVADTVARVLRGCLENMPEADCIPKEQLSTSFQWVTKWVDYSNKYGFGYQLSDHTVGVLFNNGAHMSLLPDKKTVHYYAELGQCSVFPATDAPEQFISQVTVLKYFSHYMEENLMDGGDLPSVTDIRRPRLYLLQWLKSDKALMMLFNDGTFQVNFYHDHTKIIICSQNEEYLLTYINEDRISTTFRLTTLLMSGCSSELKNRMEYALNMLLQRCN
Chain of Tyrosine-protein kinase JAK1 (P23458 whole entry, the tested form may be a part): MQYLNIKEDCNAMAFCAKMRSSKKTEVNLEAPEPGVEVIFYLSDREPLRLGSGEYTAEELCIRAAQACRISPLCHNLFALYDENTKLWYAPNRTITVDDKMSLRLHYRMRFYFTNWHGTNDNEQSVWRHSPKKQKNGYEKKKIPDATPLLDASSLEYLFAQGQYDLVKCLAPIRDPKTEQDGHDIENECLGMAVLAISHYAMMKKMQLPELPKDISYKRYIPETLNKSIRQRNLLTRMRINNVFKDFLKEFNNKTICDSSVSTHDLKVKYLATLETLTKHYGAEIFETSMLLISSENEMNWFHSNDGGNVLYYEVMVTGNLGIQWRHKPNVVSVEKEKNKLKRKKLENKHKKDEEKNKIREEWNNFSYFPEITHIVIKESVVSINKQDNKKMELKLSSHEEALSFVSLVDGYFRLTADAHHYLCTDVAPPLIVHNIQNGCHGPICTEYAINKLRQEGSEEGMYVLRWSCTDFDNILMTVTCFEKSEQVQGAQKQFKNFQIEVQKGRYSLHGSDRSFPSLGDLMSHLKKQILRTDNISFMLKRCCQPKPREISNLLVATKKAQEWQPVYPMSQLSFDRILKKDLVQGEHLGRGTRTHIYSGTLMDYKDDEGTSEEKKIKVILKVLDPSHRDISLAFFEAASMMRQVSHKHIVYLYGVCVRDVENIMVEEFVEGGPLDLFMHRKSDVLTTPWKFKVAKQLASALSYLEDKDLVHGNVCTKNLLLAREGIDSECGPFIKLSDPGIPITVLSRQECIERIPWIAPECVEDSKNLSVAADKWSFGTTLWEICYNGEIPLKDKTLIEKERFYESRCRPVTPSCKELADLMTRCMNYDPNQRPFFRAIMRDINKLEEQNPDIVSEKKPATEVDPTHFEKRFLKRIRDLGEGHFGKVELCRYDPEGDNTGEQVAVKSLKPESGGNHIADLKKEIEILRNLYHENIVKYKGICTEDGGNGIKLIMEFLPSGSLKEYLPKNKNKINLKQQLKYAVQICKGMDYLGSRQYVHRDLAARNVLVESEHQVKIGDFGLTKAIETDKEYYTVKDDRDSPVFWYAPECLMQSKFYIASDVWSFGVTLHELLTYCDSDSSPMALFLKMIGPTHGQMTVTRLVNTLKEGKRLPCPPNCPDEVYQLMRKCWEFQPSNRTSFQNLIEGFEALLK

SMILES: CNC(=O)Nc1ccc(-c2nc(N3CC4CCC(C3)O4)c3cnn(C4CCC5(CC4)OCCO5)c3n2)cc1
% of control [1]: 100%

% of inhibition [2]: 5.4%
SMILES: CC[C@@H]1[C@H](F)C(=O)N[C@@H]1COc1nccc2cc(C(N)=O)c(OC)cc12 [ZIMLOVISERTIB]

SMILES: CN(C)CCOc1ccc(-c2nc(-c3ccncc3)c(-c3ccc4c(c3)CC/C4=N\O)[nH]2)cc1
% of control [3]: 0.5%

SMILES: COc1cc(N(C)c2ccnc3ccc(C(F)(F)F)cc23)cc(OC)c1OC
% binding [4]: 93%
% binding [5]: 52%
